This is an account of results in US20090018194A1, “Use of antimicrobial agents derived from alliaceous plants for the prevention and control of crop diseases, post-harvest rot and as environmental disinifectant products” (DMC Research Center, S.L., priority 2007, published 2009).

Data set [1] has as its system Trichoderma aureoviride CECT 20102. The data set is described as follows: agar diffusion test, commercial phytosanitaries. It counts as cell-based. Particulars: incl. 6 mm disc. On the technique in general: Agar diffusion results depend on both activity and mobility in agar.
The test system of data set [2] is Rhizopus stolonifer ATCC 24862. The data set is described as follows: agar diffusion test, commercial phytosanitaries. It counts as cell-based. The settings on record: incl. 6 mm disc.
Data set [3] concerns Geotrichum candidum CECT 1902. The data set is described as follows: agar diffusion test, commercial phytosanitaries. The data set is classed as cell-based. The settings on record: incl. 6 mm disc.
For data set [4], the system named is Penicillium italicum CECT 2294. The data set is described as follows: agar diffusion test with impregnated cellulose discs. It counts as cell-based. Particulars: incl. 6 mm disc.
Data set [5] has as its system Botrytis cinerea. The data set is described as follows: post-harvest rotting of inoculated apples, drencher treatment. Particulars: 450 ppm, 15 days of refrigeration at 5-6° C. It counts as in vivo. On the procedure:
(§1) The effectiveness of the active principle PTS (in various individual doses) was studied in the control of post-harvest rotting of pears and apples caused by the fungi Botrytis cinerea and Penicillium expansum, the principal agents of diseases in these fruits. These phytopathogens can appear in fruit being stored in a cold room and, once in the processing plant and in a later phase, form colonies and are transferred from one fruit to another by contact. The study was performed by means of a controlled inoculation test to ensure a high percentage of affected fruits, and to guarantee that this level of infection is with certainty caused by these pathogens, thereby making it possible to detect and evaluate significant differences between the different treatments. […] To perform the controlled inoculation, wild strains of Botrytris cinerea and Penicillium expansum were used which were isolated in fruit and vegetable processing plants. […] After the time indicated above had passed, the various post-harvest treatments were carried out by means of […] 25° C. for 60 seconds.

The test system of data set [6] is Penicillium expansum. Described as above. It counts as in vivo. Particulars: 450 ppm, 15 days of refrigeration at 5-6° C. On the procedure: as §1
In data set [7] the test system is Botrytis cinerea. In words: post-harvest rotting of inoculated pears, drencher treatment. Particulars: 450 ppm, 15 days of refrigeration at 5-6° C. The data set is classed as in vivo. On the procedure:
as §1

Data set [8] has as its system Penicillium expansum. The description is as above. The data set is classed as in vivo. The settings on record: 450 ppm, 15 days of refrigeration at 5-6° C. On the procedure: as §1
Data set [9] deals with pears (Decana and Flor de Invierno varieties). The data set is described as follows: phytotoxicity on treated pears. The settings on record: 450 ppm.
Data set [10] deals with apples (Golden Delicious and Red Chief varieties). In words: phytotoxicity on treated apples. The settings on record: 450 ppm.

Take `c1ccc(-c2ccccc2)cc1` [Biphenyl]: the “diameter of the microbial inhibition halo” value in [1] (4000 ppm active principle), in [1] (6000 ppm active principle), in data set [2] (4000 ppm active principle), in data set [2] (6000 ppm active principle), in data set [3] (4000 ppm active principle) and in [3] (6000 ppm active principle) was 0 mm throughout. In addition, the entries for the “diameter of the microbial inhibition halo” value in [4] (4000 ppm active principle) and in data set [4] (6000 ppm active principle) were 7 mm and 8 mm, respectively.
For `Oc1ccccc1-c1ccccc1` [o-pheynl phenol], the “diameter of the microbial inhibition halo” value is 40 mm in data set [1] (4000 ppm active principle); 42 mm in data set [1] (6000 ppm active principle); 14 mm in [2] (4000 ppm active principle); 15 mm in [2] (6000 ppm active principle); 45 mm in [3] (4000 ppm active principle); 47 mm in [3] (6000 ppm active principle). Also, the “diameter of the microbial inhibition halo” value in data set [4] (4000 ppm active principle) and in [4] (6000 ppm active principle) was 45 mm throughout.
As to imazalil sulfate [reference compound], the “% of fruit affected” value in the data set with Botrytis cinerea [5] (Golden Delicious) is on record as 10%; in the data set with Botrytis cinerea [5] (Red Chief), 12%; in the data set with Penicillium expansum [6] (Golden Delicious) it was 4.3%; in the data set on Penicillium expansum [6] (Red Chief), 6.2%; in the data set on Botrytis cinerea [7] (Decana), 19%; in the data set with Botrytis cinerea [7] (Flor de invierno), 24%. The figures for the “% of fruit affected” value with Penicillium expansum [8] (Decana) and with Penicillium expansum [8] (Flor de invierno) were 4.5% and 6.7%, respectively. Also, the “Phytotoxicity (number of damaged fruits)” value is 0 in data set [9] (Decana, fruit inoculated with Botrytis cinerea); 0 in data set [9] (Decana, fruit inoculated with Penicillium expansum); 0 in [9] (Flor de invierno, fruit inoculated with Botrytis cinerea); 0 in data set [9] (Flor de invierno, fruit inoculated with Penicillium expansum); 0 in data set [10] (Golden Delicious, fruit inoculated with Botrytis cinerea); 0 in data set [10] (Golden Delicious, fruit inoculated with Penicillium expansum). Further, the “Phytotoxicity (number of damaged fruits)” value was 0 in [10] (Red Chief, fruit inoculated with Botrytis cinerea) and 0 in data set [10] (Red Chief, fruit inoculated with Penicillium expansum).
